# Experimental data taken from patent US20030021796A1, “Method of enhancing T cell immunity by selection of antigen specific T cells” (priority 2001, published 2003).
# “Also recorded” adds a separate entry of the source.
# Columns and labels:
# transgenic thymocytes = experiment: Negative selection of transgenic thymocytes after i.p. peptide injection into TCR^TgTCRα^− mice (wild type A^b); type: in vivo, mouse
# Method: (§1) Flow cytometry analysis. Monoclonal antibodies specific for CD4(RM4-5), CD8(53-6.7), VβB8(F23.1), CD69(H1.2F3), CD44(IM7) and CD62L(MEL-14) were purchased from PharMingen (San Diego, Calif.) and used according to manufacturer's recommendations. Cells were analyzed using a FACSCalibur instrument (Becton Dickinson, San Jose, Calif.) and CellQuest software. For intracellular stain cells were first stained for CD4 and CD8, fixed in 2% paraformaldehyde, permeabilized in 0.1% Tween-20 and stained with anti-bcl-2 antibody (Pharmingen) according to manufacturer instruction.
# (§2) Peptide injections and surgical procedures. TCR^TgTCRα^− and TCR^TgTCRαH2-M^−Ii^− were injected i.p. with agonist and control peptides dissolved in PBS. After indicated time mice were sacrificed, thymus and lymph nodes were collected and single cell suspensions were prepared. Pups were injected with 2 μg of peptide subcutaneously 12-24 hours after birth and thymi were transplanted into recipient mice 24 hours after injection. 5-8 week old TCR^TgTCRα^− H2-M^−Ii^− mice were used for thymectomy or as thymic transplant recipients. Surgical procedures were performed as described (Coligan et al., 1997). Mice were handled according with the institutional guidance.
# Characterization of peptide agonists for the PCC specific transgenic αβTCR. To examine the role of peptides during positive selection in vivo, the inventors generated transgenic mice expressing class II restricted TCR specific for analogs of a pigeon cytochrome C peptide PCC(43-58) presented by the A molecule (Kraj et al., 2001). This receptor recognizes analogs of PCC(43-58) in which aspartic acid in position 50 is replaced by amino acids with neutral/hydrophobic (PCC50V, PCC50V54A, PCC46A49A50V54A, PCC50L, PCC50F) side chains (FIG. 6 and FIG. 9). The TCR transgenic mice were backcrossed to C57BL6 TCRα^− knockout mice so that almost all T cells expressing transgenic TCR become CD4^+ T cells (FIG. 4A and FIG. 10A). Initially, the inventors examined the capacity of agonist peptides to induce negative selection of transgenic T cells.
# transgenic CD4^+ T cells [1] = experiment: Neonatal thymus transplant under the kidney capsule of TCRα^−H2-M^−Ii^− recipients with selecting peptide; type: in vivo, mouse
# Source text: Since the selecting peptide is an agonist, in a specific embodiment of the present invention the observed phenomenon results from the expansion of a small number of peripheral transgenic CD4^+ T cells rather than from induced positive selection. To test this possibility, two types of experiments have been performed. In the first experiment, the PCC TgTCRα^−H-2M^−Ii^− mice were thymectomized and then injected with the PCC50V54A peptide. Two weeks after injection, these mice were sacrificed and the number of peripheral CD4^+ T cells was counted. […] In the second experiment, the neonatal thymi from TgTCRα^−H-2M^−Ii^− mice were transplanted under the kidney capsule of H-2M^−Ii^− TCRα^− mice, which are devoid of T cells. Two days after surgery, half of the recipient mice were injected with the selecting peptide. After 10 days, recipient mice were sacrificed and the presence of transgenic CD4^+ T cells in the transplanted thymus and lymph nodes was determined by FACS analysis. […] Apparently, CD4^+ T cells appear in the peripheral lymph nodes of PCC TgTCRα^−H-2M^−Ii^− injected with the PCC50V54A peptide as a result of positive selection by this peptide.
# Peptide injections and surgical procedures. TCR^TgTCRα^− and TCR^TgTCRαH2-M^−Ii^− were injected i.p. with agonist and control peptides dissolved in PBS. After indicated time mice were sacrificed, thymus and lymph nodes were collected and single cell suspensions were prepared. Pups were injected with 2 μg of peptide subcutaneously 12-24 hours after birth and thymi were transplanted into recipient mice 24 hours after injection. […]
# (§3) Since the selecting peptide is an agonist, one could argue that the observed phenomenon results from the expansion of a small number of peripheral transgenic CD4^+ T cells rather than from induced positive selection (Martin & Bevan, 1997). […] Two weeks after injection, the mice were sacrificed and the number of peripheral CD4^+ T cells was counted. […] After 10 days, recipient mice were sacrificed and the presence of transgenic CD4^+ T cells in the transplanted thymus and host lymph nodes was determined by FACS analysis. […]
# peripheral CD4^+ T cells = experiment: Peptide injection into thymectomized TCR^TgTCRα^−H2-M^−Ii^− mice; type: in vivo, mouse; conditions: two weeks after injection
# Source text: Since the selecting peptide is an agonist, in a specific embodiment of the present invention the observed phenomenon results from the expansion of a small number of peripheral transgenic CD4^+ T cells rather than from induced positive selection. To test this possibility, two types of experiments have been performed. In the first experiment, the PCC TgTCRα^−H-2M^−Ii^− mice were thymectomized and then injected with the PCC50V54A peptide. Two weeks after injection, these mice were sacrificed and the number of peripheral CD4^+ T cells was counted. […] After 10 days, recipient mice were sacrificed and the presence of transgenic CD4^+ T cells in the transplanted thymus and lymph nodes was determined by FACS analysis. […]
# as §3
# transgenic CD4^+ T cells [2] = experiment: Selection of transgenic CD4^+ T cells in TCR^TgTCRα^−→H-2M^−Ii^− radiation chimeras; conditions: mouse, in vivo
# Source text: Also disclosed by the inventors is the development of transgenic CD4^+ T cells in chimeras made by reconstituting H-2M^−Ii^− mice with the bone marrow from TCR^TgTCRα^− mice (TCR^TgTCRα^−→H-2M^−Ii^− chimeras). The development of thymocytes in such chimeras is arrested at the CD4^+CD8^+ stage despite the presence of selecting wild type A^b/self-peptide complexes on bone marrow-derived dendritic cells. […] This in vivo model relates that, in contrast to the reaggregation cultures (Yastumo et al., 2000), radioresistant thymic epithelial cells are required to provide an agonist signal that induces thymocyte differentiation towards CD4^+ lineage in vivo.
# [3] = test system: transgenic CD4^+ thymocytes; experiment: Positive selection of CD4^+ thymocytes after peptide injection into TCR^TgTCRα^−H2-M^−Ii^− mice (flow cytometry of thymus); type: in vivo, mouse
# Source text: Mice. The TCR genes were cloned from T cell hybridoma specific for analogs of the PCC(43-58) peptide and expressed in VA-hCD2 cassette (Ignatowicz et al., 1997; Kraj et al., 2001; Zhumabekov et al., 1995). All TCR transgenic mice were made by co-microinjection of the respective […] and TCRβ constructs into fertilized eggs of F1 (C57BL/6×CBA/Ca) mice. TCR Tg mice were crossed to C57B16/TCRα^− (Jackson Laboratory, ME) mice and to mice deficient in H2-M (kindly provided by E. Bikoff and R. Germain) and Ii (kindly provided by L. van Kaer) to obtain TCR^TgTCRα^− H2-M^−Ii^−.
# as §1, §2
# [4] = one i.p. injection of 50 μg, 24 hours
sequence,measurement,setting,value
"AEGFSYTVANKAKGIT [PCC50V54A, analog of pigeon cytochrome C peptide PCC(43-58)]",negative selection of transgenic thymocytes,"transgenic thymocytes; 20 μg i.p., 24 hours, thymus cellularity, annexin V, TUNNEL",does not induce negative selection; also recorded: did not induce negative selection
same,thymus cellularity,"transgenic thymocytes; 20 μg, TgTCRα^−H-2M^−Ii^− or TgTCRα^−A^bwt mice",the same as in control mice
same,negative selection / deletion of transgenic thymocytes,"transgenic thymocytes; 200 μg/mouse i.p., 24 hours",induced profound negative selection; also recorded: induced profound deletion
same,apoptotic cells by TUNNEL assay and annexin V staining,"transgenic thymocytes; after peptide injection, 20 μg",failed to demonstrate apoptotic cells
same,presence of transgenic CD4^+ T cells in transplanted thymus and host lymph nodes,transgenic CD4^+ T cells [1]; donor neonates injected (2 μg) 24 hours before transplantation,found only in mice grafted with thymi from neonates injected with the selecting peptide; also recorded: repopulate peripheral lymph nodes
same,presence of transgenic CD4^+ T cells in transplanted thymus and lymph nodes,"transgenic CD4^+ T cells [1]; recipients injected two days after surgery, analysed after 10 days","found only in thymus-grafted mice, injected with the selecting peptide"
same,total number of lymph node cells,"transgenic CD4^+ T cells [1]; recipients of neonatal thymi injected with the selecting peptide, two weeks after transplantation",25.5×10^6±4.2
same,total number of lymph node cells,peripheral CD4^+ T cells; 50 μg,11.5×10^6±1.6
same,number of peripheral CD4 transgenic T cells,peripheral CD4^+ T cells; versus non-injected thymectomized controls,very low and did not increase; also recorded: very few CD4^+ peripheral T cells
same,appearance / positive selection of mature CD4^+ T cells in chimeras,transgenic CD4^+ T cells [2],appeared only after injection
same,cellularity of the thymus and number of apoptotic cells (TUNNEL assay and annexin V staining),"[3]; 20 μg, compared with controls",the same
same,"expression of TCR, CD69, bcl-2 on thymocytes","[3]; after injection of selecting peptide (20 μg, 48 hours)",became bcl-2+; also recorded: upregulated CD69 and bcl-2 expression; also recorded: upregulated TCR and CD69 expression; also recorded: Bcl-2 was upregulated
same,positive selection of transgenic thymocytes,"[3]; i.p., non-deleting dose (20 μg)",restored selection of CD4^+ single positive thymocytes
same,CD25 phenotype of newly selected CD4^+ thymocytes,"[3]; mouse, in vivo",CD25^−
same,differentiation of thymocytes into single positive CD4^+ cells,[3]; [4],differentiate into single positive CD4^+ cells
same,total number of thymocytes,[3]; [4],161.5×10^6±54.4
same,total number of thymocytes,"[3]; one i.p. injection of 50 μg, 48 hours",142.5×10^6±44.9
same,duration of positive selection of CD4^+ thymocytes after a single injection,[3]; single injection,14 days
